US20250375414A1, “UROLITHIN COMBINATIONS” (Amazentis SA, priority 2024, published 2025)

Columns and labels:
[1] = system: Interleukin-6 (IL-6) secretion in human dermal fibroblasts (nHDF); test: IL-6 in supernatant of cytokine mix-treated normal human dermal fibroblasts (nHDF) (ELISA); format: cell-based
Method: A dose of 0.025 ng/ml of Cytokines mix was applied to induce inflammation, measured by quantifying the levels of the pro-inflammatory cytokine interleukin 6 (IL-6) in the cell culture supernatant. For the experiment, cells were first pre-treated with either i) urolithin A 2.5 uM, ii) Zinc at 100 uM, iii) a combination of urolithin A 2.5 uM and Zinc 100 uM, iv) or DMSO as control for 24 h. Then cells were co-treated with both CTX and either urolithin A or Zinc alone or in combination, as above. After 24 h, IL-6 was measured in the cell supernatant to assess the ability of Urolithin A and Zinc to reduce Cytokines-induced inflammation.
Normal Human dermal fibroblasts (nHDF) purchased from Promocell (ref. C-12302) were seeded at 6000 cells per well in a 96 well plate (Greiner) using a DMEM Glutamax 1 g D-glucose (Gibco, ref 21885108) supplemented with FBS 10% (PanBiotech, ref P30-3033), 1% PenStrep (Biowest) and 1% Hepes (Biowest). All media were sterilized with a 0.45 μm filter unit (VWR). The day after the seeded cells were treated for 24 h with 1) Urolithin A (UA) resuspended in DMSO, Zinc gluconate (MedChemExpress Ref. HY-W145499) or a combination of the two at the indicated doses.Cytokine mix (“cytomix”) was added in addition of the previous treatment for another 24 h, cytokines were used equally for a total and final concentration of 0.025 ng/ml (mIFN-g (roche ref.11276905001), TNF-α (Peprotech ref. 300-01A) and IL-b (Proteintech ref. 200-011B)). The medium was collected and an ELISA for Interleukin-6 were performed following the instruction provided by the supplier (Proteintech ref. KE10007). Finally, the absorbance at a wavelength of 450 nm was measured using a microplate plate reader (Fluostar Optima, BMG Labtech). IL-6 data were finally normalized over cell number, calculated with a cell viability assay (Promega, ref. G7571).

[2] = system: Interleukin-6 (IL-6) secretion in C2C12 myotubes; test: IL-6 release from cytomix (CTX)-inflamed C2C12 myotubes (ELISA of culture media); format: cell-based, mouse; details: for Impact on the release of IL-6 (significance): FIG. 3
Method: We first studied what is the lowest non-functional dose of Urolithin A in the context of cytokine-mediated muscle cell inflammation. For this, we exposed C2C12 myotubes to increasing doses of Urolithin A within a range of 1.56 uM to […] for 24 hours, and then induced inflammation for an additional 24 hours by applying to cells a mix of pro-inflammatory cytokines (Cytomix, abbreviated CTX). One set of cells were left untreated, indicated by the first bar (CTX−, UA−). One set of cells were treated with CTX but not Urolithin A (second bar, CTX+, UA−). At the end of the study, we measure the concentration of the proinflammatory biomarker Interleukin 6 (IL-6) released in the cell culture media.
Based on the literature we used concentrations of ERGO at two low doses—potentially non-functional—i.e. 4 uM and 20 uM. […] As for the UA experiment in FIG. 1, we treated C2C12 with ERGO at these […] doses for 24 hours, followed by treatment with CTX for additional 24 hours.
For this combination experiment, C2C12 were treated without CTX, with CTX alone and with CTX plus either UA alone (6.25 uM), ERGO alone (both 20 uM and 100 uM) and UA plus ERGO 20 uM and UA+ERGO 100 uM.
C2C12 Myoblasts purchased from the American Type Culture Collection (ATCC; ref. CRL-1772) were seeded at 8000 cells per well in a 96 well plate (Greiner) using a DMEM Glutamax 4.5 g D-glucose (Gibco, ref 31966021) supplemented with FBS 10% (PanBiotech, ref P190902), 1% PenStrep (Biowest, Nuaill6, France) and 1% Hepes (Biowest). Cells were then differentiated for 6 days using a differentiation medium (DMEM Glutamax 4.5 g D-glucose (Gibco, ref 31966021), 2% Horse serum (Thermofisher, ref 160501229) 1% PenStrep and 1% Hepes). All our media were sterilized with a 0.45 μm filter unit (VWR). After 4 days of the differentiation cells were treated for 24 h with 1) Urolithin A (UA), Ergothieoneine (ERGO, MedChem Express HY-N1914) or a combination of the two at the indicated doses. Cytokine mix (“cytomix”) was added at day 5 in addition of the previous treatment for another 24 h, cytokines were respectively used at 5 ng (mIFN-γ (Roche ref.11276905001), TNF-α (Peprotech ref. 300-01A) and IL-β (Proteintech ref. 200-011B)). The medium was collected and an ELISA for Interleukin-6 were performed following the instruction provided by the supplier (Proteintech ref. KE10007). Finally, the absorbance at a wavelength of 450 nm was measured using a microplate plate reader (Fluostar Optima, BMG Labtech).

[3] = system: IL-6 levels in stressed C2C12 cells; details: cited from earlier work
[4] = system: IL-6 levels in 3T3-L1 cells; details: 3T3-L1 cells after stimulation with TNFα; cited from earlier work

For `O=c1oc2cc(O)ccc2c2ccc(O)cc12` [UA, Urolithin A], the “% reduction IL-6” value ([1]; CTX vs. CTX + UA 2.5 uM, nHDF) was −25%, the “First dose at which UA did not exert a significant reduction in IL-6 (sub-functional dose)” value ([2]; C2C12 myotubes, CTX, FIG. 1) was 6.25 µM and the “Effect on IL-6 release of CTX inflamed cells” value ([2]; UA 1.56 uM to 50 mM, 24 h, then CTX 24 h, FIG. 1) was “dose dependent decrease”. The “Percent change in IL-6 vs CTX alone” value ([2]; UA 6.25 uM, 24 h, then cytomix (CTX) further 24 h, C2C12 myotubes) was −5.2% and the “Impact on the release of IL-6 (significance)” value ([2]; UA alone 6.25 uM, CTX) was “did not significantly impact”.

For Zinc gluconate, the “% reduction IL-6” value ([1]; CTX vs. CTX + Zinc 100 uM, nHDF) was −29.6%, the “Relative Change (%) Compared to CTX” value ([1]; Zinc 100 uM, CTX 0.025 ng/ml, IL-6 in nHDF supernatant) was −29.57% and the “Reduction of CTX-mediated increase of IL-6” value ([1]; Zinc 100 uM, nHDF) was 29.6%.

For `C[N+](C)(C)[C@@H](Cc1c[nH]c(=S)[nH]1)C(=O)[O-]` [ERGO, ergothioneine], the “Effect on IL-6 levels” value [3] is given as “reduce IL-6 levels”, the “Effect on IL-6 levels” value [4] is given as “reduce IL-6 levels” and the “Percent change in IL-6 vs CTX alone” value ([2]; ERGO 20 uM, 24 h, then CTX further 24 h, C2C12 myotubes) is given as “+1.2%”. For the same compound, the “Percent change in IL-6 vs CTX alone” value ([2]; ERGO 100 uM, 24 h, then CTX further 24 h, C2C12 myotubes) was −28%, the “Impact on IL6 (significance)” value ([2]; ERGO 100 uM, CTX) was “significant reduction” and the “Impact on the release of IL-6 (significance)” value ([2]; ERGO alone 20 uM, CTX) was “did not significantly impact”. The “Only dose leading to a significant decrease in CTX-induced IL-6 secretion” value ([2]; ERGO tested at 4 uM, 20 uM and 100 uM, FIG. 2) was 100 µM.
